Source: PubChem BioAssay (NCI)
Values joined by “and” are separate entries in the source; they are usually repeats but may differ in a detail not shown here. Equal entries are not always repeated.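 Test compounds were applied to cells in 96-well plates for 48 hours at 5 doses. Here, GI50 denotes the concentration required for 50% inhibition of growth. TGI: total growth inhibition.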 Where a SMILES comes first, the peptide text is derived from it. [ ]: non-standard residue; d: D form. Ac5c = NC1(C(=O)O)CCCC1

System: M14 melanoma
Experiment: DTP human tumour cell line panel, 48 h

| Compound | TGI [µM] | GI50 [µM] |
| --- | --- | --- |
| O=C(/C=C/c1ccc([N+](=O)[O-])o1)N1CCN(Cc2ccccc2)CC1 | 16.7 | – |
| CC(=O)CC(=O)Nc1ccc2ccccc2c1 | > 100 | – |
| CCCCOC(=O)NC(=O)c1cn(CCCOC(=O)CCCCCCCCC(=O)OCCCn2cc(C(=O)NC(=O)OCCCC)c(=O)[nH]c2=O)c(=O)[nH]c1=O | > 100 | – |
| Nc1c(C(=O)c2ccc(Cl)cc2)sc(Nc2ccccc2)c1-c1nc2ccccc2s1 | > 100 | 2.65 |

System: RXF 393 renal
Experiment: DTP human tumour cell line panel, 48 h

| Compound | GI50 [µM] | TGI |
| --- | --- | --- |
| COc1cc(/C=C/C(=O)CC(=O)/C=C/c2cc(OC)c(OC)c(OC)c2)cc(OC)c1OC | 3.09 | 8.84 µM |
| CO[C@@H]1/C=C\C=C(/C)C(=O)NC2=CC(=O)C(NCCN(C)C)=C(C[C@@H](C)C[C@@H](OC)[C@@H](O)[C@H](C)/C=C(\C)[C@H]1OC(N)=O)C2=O | – | 11.8 µM and 10.8 µM |
| c1ccc2c(c1)CCC/C2=N\OCC1CO1 (configuration not stated) | – | 98.9 µM |
| COc1ccc(CN(C)c2ccc(CO)c(Cl)c2)cc1 | 10.9 | > 79.8 µM |
| CC/C(C)=C1\CCC(CN2CCOCC2)C1=O (configuration not stated) | – | 22 µM |
| COC(=O)C1C(C(=O)OC)C2(OC)c3ccccc3-c3ccccc3C12 (configuration not stated) | – | > 100 µM |
| O=C1Nc2ccc(C(=O)c3ccco3)cc2/C1=C/c1cc(Cl)c(O)c(Cl)c1 | 2.77 | 15.5 µM |
| O=C1OC(CC(=O)c2ccc(Cl)c(Cl)c2)C(Cl)=C1Cl (configuration not stated) | – | > 100 µM |
| O=c1ccn(C2OC(CO)C(O)C2F)c(=O)[nH]1 (configuration not stated) | > 1000 | > 1000 µM |
| CC(=O)[O-].CC(=O)[O-].[Pt+2].c1cscn1.c1cscn1 | > 100 | > 100 µM |
| O=[N+]([O-])c1cc(Cl)c(Cl)c([N+](=O)[O-])c1Cl | 1.82 | 3.25 µM |
| CC[C@@H]1OC2(C)CC(S(=O)(=O)c3ccccc3O)CC1O2 (some centres not stated) | – | > 100 µM |
| CC(=O)OCC1OC(N2C(=O)C(=O)c3cc(C)ccc32)C(OC(C)=O)C(OC(C)=O)C1OC(C)=O (configuration not stated) | – | 90.7 µM |
| CCN1CCN(C(=O)[C@]23CC[C@@H](C)[C@H](C)[C@@H]2C2=CC[C@@H]4[C@@]5(C)C/C(=C/c6ccncc6)C(=O)C(C)(C)[C@@H]5CC[C@@]4(C)[C@]2(C)CC3)CC1 | 1.39 | 2.79 µM |
| Cc1cc(C)c([O-])c(CN(C)CCN(C)Cc2cc(C)cc(C)c2[O-])c1.O=C([O-])c1cccc(C(=O)[O-])n1.[Ti+4] | 1.42 | 3.96 µM |
| NC1(C(=O)NC2(C(=O)O)CCCC2)CCCC1 (H-[Ac5c]-[Ac5c]-OH) | – | > 100 µM |
| COc1cc(OC)c(/C=C/S(=O)(=O)Cc2cnc(OC)c(N)c2)c(OC)c1 | < 0.01 | > 100 µM |
| COc1ccc([N+]2=NC(c3ccc([N+](=O)[O-])cc3)=NN(c3ccccc3)C2)cc1 | – | > 100 µM |
| CSc1nc(C)c2c(n1)SCC2 | – | > 10 µM |
| C=CCC(N[C@H](CO)c1ccccc1)c1ccc2ccccc2n1 (some centres not stated) | > 100 | > 100 µM |
| O=C(/C=C/c1ccc([N+](=O)[O-])o1)N1CCN(Cc2ccccc2)CC1 | – | 24.5 µM |
| CC(=O)CC(=O)Nc1ccc2ccccc2c1 | – | > 100 µM |
| CCCCOC(=O)NC(=O)c1cn(CCCOC(=O)CCCCCCCCC(=O)OCCCn2cc(C(=O)NC(=O)OCCCC)c(=O)[nH]c2=O)c(=O)[nH]c1=O | – | > 100 µM |
| Nc1c(C(=O)c2ccc(Cl)cc2)sc(Nc2ccccc2)c1-c1nc2ccccc2s1 | 10.5 | 33.1 µM |

System: SNB-75 CNS
Experiment: DTP human tumour cell line panel, 48 h

| Compound | GI50 [µM] | TGI |
| --- | --- | --- |
| COc1cc(/C=C/C(=O)CC(=O)/C=C/c2cc(OC)c(OC)c(OC)c2)cc(OC)c1OC | 3.89 | 50.5 µM |
| CO[C@@H]1/C=C\C=C(/C)C(=O)NC2=CC(=O)C(NCCN(C)C)=C(C[C@@H](C)C[C@@H](OC)[C@@H](O)[C@H](C)/C=C(\C)[C@H]1OC(N)=O)C2=O | < 0.0235 | 0.977 µM and 6.15 µM |
| c1ccc2c(c1)CCC/C2=N\OCC1CO1 (configuration not stated) | – | > 100 µM |
| COc1ccc(CN(C)c2ccc(CO)c(Cl)c2)cc1 | 23.5 | > 90.7 µM |
| CC/C(C)=C1\CCC(CN2CCOCC2)C1=O (configuration not stated) | – | 40.6 µM |
| COC(=O)C1C(C(=O)OC)C2(OC)c3ccccc3-c3ccccc3C12 (configuration not stated) | – | > 100 µM |
| O=C1Nc2ccc(C(=O)c3ccco3)cc2/C1=C/c1cc(Cl)c(O)c(Cl)c1 | 6.16 | > 25 µM |
| O=C1OC(CC(=O)c2ccc(Cl)c(Cl)c2)C(Cl)=C1Cl (configuration not stated) | – | > 100 µM |
| O=c1ccn(C2OC(CO)C(O)C2F)c(=O)[nH]1 (configuration not stated) | – | > 100 µM |
| CC(=O)[O-].CC(=O)[O-].[Pt+2].c1cscn1.c1cscn1 | > 100 | > 100 µM |
| O=[N+]([O-])c1cc(Cl)c(Cl)c([N+](=O)[O-])c1Cl | 1.47 | 2.81 µM |
| CC[C@@H]1OC2(C)CC(S(=O)(=O)c3ccccc3O)CC1O2 (some centres not stated) | – | > 100 µM |
| CC(=O)OCC1OC(N2C(=O)C(=O)c3cc(C)ccc32)C(OC(C)=O)C(OC(C)=O)C1OC(C)=O (configuration not stated) | – | > 100 µM |
| CCN1CCN(C(=O)[C@]23CC[C@@H](C)[C@H](C)[C@@H]2C2=CC[C@@H]4[C@@]5(C)C/C(=C/c6ccncc6)C(=O)C(C)(C)[C@@H]5CC[C@@]4(C)[C@]2(C)CC3)CC1 | 1.27 | 2.67 µM |
| Cc1cc(C)c([O-])c(CN(C)CCN(C)Cc2cc(C)cc(C)c2[O-])c1.O=C([O-])c1cccc(C(=O)[O-])n1.[Ti+4] | 1.67 | 5.65 µM |
| NC1(C(=O)NC2(C(=O)O)CCCC2)CCCC1 (H-[Ac5c]-[Ac5c]-OH) | – | > 100 µM |
| CSc1nc(C)c2c(n1)SCC2 | – | > 10 µM |
| C=CCC(N[C@H](CO)c1ccccc1)c1ccc2ccccc2n1 (some centres not stated) | > 100 | > 100 µM |
| O=C(/C=C/c1ccc([N+](=O)[O-])o1)N1CCN(Cc2ccccc2)CC1 | – | 30.4 µM |
| CC(=O)CC(=O)Nc1ccc2ccccc2c1 | – | > 100 µM |
| Nc1c(C(=O)c2ccc(Cl)cc2)sc(Nc2ccccc2)c1-c1nc2ccccc2s1 | 1.89 | 9.5 µM |

System: NCI-H460 lung
Experiment: DTP human tumour cell line panel, 48 h

| Compound | GI50 [µM] | TGI |
| --- | --- | --- |
| COc1cc(/C=C/C(=O)CC(=O)/C=C/c2cc(OC)c(OC)c(OC)c2)cc(OC)c1OC | 3.94 | 18.4 µM |
| CO[C@@H]1/C=C\C=C(/C)C(=O)NC2=CC(=O)C(NCCN(C)C)=C(C[C@@H](C)C[C@@H](OC)[C@@H](O)[C@H](C)/C=C(\C)[C@H]1OC(N)=O)C2=O | < 0.0117 | 3.61 µM and 3.76 µM |
| c1ccc2c(c1)CCC/C2=N\OCC1CO1 (configuration not stated) | – | > 100 µM |
| COc1ccc(CN(C)c2ccc(CO)c(Cl)c2)cc1 | 1.04 | 15 µM |
| CC/C(C)=C1\CCC(CN2CCOCC2)C1=O (configuration not stated) | – | 32.4 µM |
| COC(=O)C1C(C(=O)OC)C2(OC)c3ccccc3-c3ccccc3C12 (configuration not stated) | – | > 100 µM |
| O=C1Nc2ccc(C(=O)c3ccco3)cc2/C1=C/c1cc(Cl)c(O)c(Cl)c1 | 4.23 | > 22.8 µM |
